{"source": "paper PMC7253423", "about": "“Quassinoid analogs with enhanced efficacy for treatment of hematologic malignancies target the PI3Kγ isoform” (Communications Biology, 2020)", "key": {"[1]": {"tested_on": "PIK3CG knock-out Raji cells", "assay": "Western blot of PI3K/AKT associated proteins in knock-out cells", "assay_type": "cell-based, human", "conditions": "100 nM, 72 h", "description": "Western blot analyses were performed as previously described. Briefly, total cell lysates were separated by SDS-PAGE gel and transferred to nitrocellulose membrane. The membranes were blocked with 5% non-fat milk, probed with specific antibodies, and visualized using the Odyssey scanner (LiCor Inc., Lincoln, NE).\nOligos were obtained from Integrated DNA Technologies (IDT; Coralville, IA, USA) and cloned into the lentiviral vector lentiCRISPR v2 (Addgene #52961)[66]. Lentivirus production and transduction have been described previously. Here, Raji cells were transduced with a lentivirus harboring lentiCRISPR v2 vector or a construct containing the guide sequence ([…]) against PIK3CG gene. At 48 h post-transduction, cells were selected with puromycin and harvested to determine PIK3CG expression with western blot."}, "[2]": {"tested_on": "PDX-129 (B-cell Follicular lymphoma)", "assay": "Cell viability assay in patient-derived xenograft cells", "assay_type": "cell-based, human", "conditions": "PDX-129, different concentrations, 72 h", "description": "(§1) 5000 cells as indicated were cultured in 96-well plate with 100 μl of media. On the next day, Brusatol or associated analogs were added once to the cells without media change. After treatment, the cells were incubated with 100 μl buffer for 10 min at room temperature following the instructions of CellTiter-Glo kit (Promega, Madison, WI). Luminescence was detected using a multi-mode reader Cytation 5 (BioTek, Winooski, VT). […] Two independent experiments done in duplicates were performed."}, "[3]": {"tested_on": "PDX-223 (Diffuse large B cell lymphoma)", "assay": "Cell viability assay in patient-derived xenograft cells", "assay_type": "cell-based, human", "conditions": "PDX-223, different concentrations, 72 h", "description": "as §1"}, "[4]": {"tested_on": "PDX-255 (Burkitt's lymphoma)", "assay": "Cell viability assay in patient-derived xenograft cells", "assay_type": "cell-based, human", "conditions": "PDX-255, different concentrations, 72 h", "description": "as §1"}, "LCL1 cells": {"tested_on": "LCL1 cells", "assay": "RNA-Seq and Ingenuity Pathway Analysis (upstream regulator analysis)", "assay_type": "cell-based, human", "description": "The cDNA library was prepared with the commercial Illumina library preparation kits (TruSeq Stranded RNA LT Ribo-Zero H/M/R Kit) according to the manufacturer’s protocols and sequenced with an Illumina HiSeq2000 instrument (Washington University Genome Sequencing Center). Quality check was performed on the raw RNA-Seq reads (FastQC, https://www.bioinformatics.babraham.ac.uk/projects/fastqc/), and the adapters were cut (Trim Galore, https://www.bioinformatics.babraham.ac.uk/projects/trim_galore/) and mapped with hg38 genome (HISAT2)[64]. Differentially expressed transcripts were defined with Cuffdiff tools[65] and visualized using R software (https://www.r-project.org/). Signaling pathway analysis was conducted with the Ingenuity Pathway Analysis program (QIAGEN Inc., https://www.qiagenbioinformatics.com/products/ingenuitypathway-analysis)[27]."}, "MOLM14 cells": {"tested_on": "MOLM14 cells", "assay": "Cell viability assay (CellTiter-Glo luminescence)", "assay_type": "cell-based", "conditions": "Homo sapiens", "description": "as §1, with “On the next day, Brusatol or associated analogs were added once to the cells without media change.” left out"}, "[5]": {"assay": "In vivo toxicity test, survival rate", "design": "species or system NOD/SCID mice", "conditions": "for survival event status per mouse (Fig 6i; 1 = event/death, 0 = censored): 10mg/kg", "description": "The survival rate was recorded to monitor the tolerance of the compounds in these mice."}, "PBMC": {"tested_on": "PBMC", "assay": "Cytotoxicity, cell viability assay in normal cells", "assay_type": "cell-based, human", "conditions": "Fig 5c", "source_text": "(§2) Human peripheral blood mononuclear cells (PBMCs), normal T-cells and B-cells were provided by the University of Pennsylvania Human Immunology Core (HIC), and Patient-derived xenografts (PDXs) were obtained from Fox Chase Cancer Center (FCCC). These samples were from different unidentified and healthy donors with written, informed consent. All the procedures were approved by the Institutional Review Board (IRB) and conducted according to the declarations of Helsinki protocols.\nas §1, with “On the next day, Brusatol or associated analogs were added once to the cells without media change.” left out"}, "[6]": {"assay": "Cytotoxicity, cell viability assay in normal cells", "assay_type": "cell-based, human", "conditions": "human, PBMC, fraction of 0 μM control, read-out: relative cell viability (Fig 6a), replicates", "source_text": "as §2\nas §1, with “On the next day, Brusatol or associated analogs were added once to the cells without media change.” left out"}, "[7]": {"assay": "Body weight of xenograft mice", "assay_type": "in vivo, NOD/SCID mice", "conditions": "individual mice, Fig S3i, in g (unit assumed)", "description": "Six-week-old male NOD.CB17-Prkdc^scid/J (NOD/SCID) mice (Jackson Labs, Bar Harbor, ME, USA) were used as the human-in-mouse xeno-transplantation model. MOLM14 cells (1 × 10^7 cells) were injected into the subcutaneous space on the left flank of the mice. […] Body weight and tumor size were monitored before every injection. After treatment for 2 weeks, the mice were euthanized by CO2 inhalation and the tumors were carefully excised. The tumor volume (mm^3) was measured and calculated using the formula (a × b × b)/2 (a, the largest diameter of two measurements; b, the smallest diameter of two measurements)."}, "[8]": {"conditions": "Brusatol-treated LCL1 cells, RNA-Seq, IPA"}}, "note": "Where “and” joins values, the source holds several entries; their conditions need not be identical. Equal values may be shown once."}
{"compound": "Brusatol", "values": [{"measurement": "AKT1 level", "setting": "[1]", "result": "no obvious decrease"}, {"measurement": "inhibition of cell viability", "setting": "[2]", "result": "inhibited"}, {"measurement": "inhibition of cell viability", "setting": "[3]", "result": "inhibited"}, {"measurement": "inhibition of cell viability", "setting": "[4]", "result": "inhibited"}, {"measurement": "Expr Other, upstream regulator ALDH1A2", "setting": "LCL1 cells; [8]", "result": -1.404}, {"measurement": "Expr Other, upstream regulator ARRB2", "setting": "LCL1 cells; [8]", "result": -0.306}, {"measurement": "Expr Other, upstream regulator CBX5", "setting": "LCL1 cells; [8]", "result": -1.126}, {"measurement": "Expr Other, upstream regulator CD22", "setting": "LCL1 cells; [8]", "result": 2.89}, {"measurement": "Expr Other, upstream regulator CDC73", "setting": "LCL1 cells; [8]", "result": -0.568}, {"measurement": "Expr Other, upstream regulator CYLD", "setting": "LCL1 cells; [8]", "result": -1.473}, {"measurement": "Expr Other, upstream regulator DICER1", "setting": "LCL1 cells; [8]", "result": 1.146}, {"measurement": "Expr Other, upstream regulator DNAJB6", "setting": "LCL1 cells; [8]", "result": 0.673}, {"measurement": "Expr Other, upstream regulator FKBP4", "setting": "LCL1 cells; [8]", "result": 0.61}, {"measurement": "Expr Other, upstream regulator GMNN", "setting": "LCL1 cells; [8]", "result": -1.679}, {"measurement": "Expr Other, upstream regulator GRN", "setting": "LCL1 cells; [8]", "result": 0.925}, {"measurement": "Expr Other, upstream regulator IFNGR1", "setting": "LCL1 cells; [8]", "result": 0.304}, {"measurement": "Expr Other, upstream regulator KMT2D", "setting": "LCL1 cells; [8]", "result": -0.912}, {"measurement": "Expr Other, upstream regulator NONO", "setting": "LCL1 cells; [8]", "result": 1.295}, {"measurement": "Expr Other, upstream regulator PAX8", "setting": "LCL1 cells; [8]", "result": 1.9}, {"measurement": "Expr Other, upstream regulator PTPRJ", "setting": "LCL1 cells; [8]", "result": -1.699}, {"measurement": "Expr Other, upstream regulator RARRES3", "setting": "LCL1 cells; [8]", "result": 2.648}, {"measurement": "Expr Other, upstream regulator SOD2", "setting": "LCL1 cells; [8]", "result": 1.251}, {"measurement": "Expr Other, upstream regulator UPF2", "setting": "LCL1 cells; [8]", "result": -0.435}, {"measurement": "Expr Other, upstream regulator WDR5", "setting": "LCL1 cells; [8]", "result": 0.395}, {"measurement": "Expr Other, upstream regulator ZC3H12A", "setting": "LCL1 cells; [8]", "result": -1.316}, {"measurement": "CTNNA1 transcript (RNA-Seq)", "setting": "LCL1 cells; LCL1, 72 h", "result": "dramatically downregulated"}, {"measurement": "SLC22A1 transcript (RNA-Seq)", "setting": "LCL1 cells; LCL1, 72 h", "result": "highly upregulated"}]}
{"compound": "COC(=O)C12OCC34C(CC5C(C)=C(OC(=O)CNC(=O)OC(C)(C)C)C(=O)CC5(C)C3C(O)C1O)OC(=O)C(OC(=O)C=C(C)C)C24", "note": "(centres unmarked) [#15]", "values": [{"measurement": "viability at 0.00244141 µM", "setting": "MOLM14 cells; MOLM-14, read-out: relative cell viability (Fig 6e), replicates, MOLM14, Con. 0.00244141 μM, fraction of 0 μM control", "result": 71.1, "unit": "%"}, {"measurement": "viability at 0.0390625 µM", "setting": "MOLM14 cells; MOLM-14, read-out: relative cell viability (Fig 6e), replicates, MOLM14, Con. 0.0390625 μM, fraction of 0 μM control", "result": 15, "unit": "%"}, {"measurement": "viability at 0.15625 µM", "setting": "MOLM14 cells; MOLM-14, read-out: relative cell viability (Fig 6e), replicates, MOLM14, Con. 0.15625 μM, fraction of 0 μM control", "result": 5.59, "unit": "%"}, {"measurement": "viability at 0.625 µM", "setting": "MOLM14 cells; MOLM-14, read-out: relative cell viability (Fig 6e), replicates, MOLM14, Con. 0.625 μM, fraction of 0 μM control", "result": 3.26, "unit": "%"}, {"measurement": "viability at 10 µM", "setting": "MOLM14 cells; MOLM-14, read-out: relative cell viability (Fig 6e), replicates, MOLM14, Con. 10 μM, fraction of 0 μM control", "result": 3.59, "unit": "%"}, {"measurement": "toxicity in vivo (survival)", "setting": "[5]; 10 mg/kg intraperitoneally every other day, monitored 24 days, 4 mice per group", "result": "obviously lethal for the majority of mice within the first 4 days"}, {"measurement": "survival event status per mouse (Fig 6i; 1 = event/death, 0 = censored)", "setting": "[5]; Days Post-treatment 2", "result": 1}, {"measurement": "survival event status per mouse (Fig 6i; 1 = event/death, 0 = censored)", "setting": "[5]; Days Post-treatment 3", "result": 1}, {"measurement": "survival event status per mouse (Fig 6i; 1 = event/death, 0 = censored)", "setting": "[5]; Days Post-treatment 4", "result": 1}, {"measurement": "Cell viability, raw luminescence reading", "setting": "PBMC; Con. 0.01 μM", "result": "24385 and 24514"}, {"measurement": "Cell viability, raw luminescence reading", "setting": "PBMC; Con. 0.039 μM", "result": "25686 and 22234"}, {"measurement": "Cell viability, raw luminescence reading", "setting": "PBMC; Con. 0.156 μM", "result": "6585 and 8242"}, {"measurement": "Cell viability, raw luminescence reading", "setting": "PBMC; Con. 0.625 μM", "result": "7188 and 7989"}, {"measurement": "Cell viability, raw luminescence reading", "setting": "PBMC; Con. 10 μM", "result": "9130 and 9273"}, {"measurement": "viability at 0.000244141 μM", "setting": "[6]; Con. 0.000244141 μM", "result": 104, "unit": "%"}, {"measurement": "viability at 0.00390625 μM", "setting": "[6]; Con. 0.00390625 μM", "result": 91.7, "unit": "%"}, {"measurement": "viability at 0.015625 μM", "setting": "[6]; Con. 0.015625 μM", "result": 76.5, "unit": "%"}, {"measurement": "viability at 0.0625 μM", "setting": "[6]; Con. 0.0625 μM", "result": 74.9, "unit": "%"}, {"measurement": "viability at 1 μM", "setting": "[6]; Con. 1 μM", "result": 61.2, "unit": "%"}, {"measurement": "Body weight", "setting": "[7]; 0d", "result": "22.36 and 23.19 and 22.87 and 22.58 and 24.63"}, {"measurement": "Body weight", "setting": "[7]; 2d", "result": "23.14 and 23.83 and 23.95 and 23.84 and 24.63"}, {"measurement": "Body weight", "setting": "[7]; 4d", "result": "23.76 and 24.67 and 24.61 and 23.58 and 25.59"}, {"measurement": "Body weight", "setting": "[7]; 6d", "result": "23.47 and 24.61 and 23.88"}, {"measurement": "Body weight", "setting": "[7]; 8d", "result": "23.92 and 24.24 and 24.72 and 24.85 and 23.89 and 25.62"}, {"measurement": "Body weight", "setting": "[7]; 10d", "result": "24.4 and 25.19 and 24.12"}, {"measurement": "Body weight", "setting": "[7]; 12d", "result": "25.79 and 25.75 and 24.71 and 26.96"}]}
